The record followed here is patent publication US20260285868A1, “IMIDAZOTRIAZINE DERIVATIVES AS IL-17 MODULATORS” (UCB BIOPHARMA SRL, priority 2023, published 2026).

The target in this assay is T1, IL-17A (Homo sapiens, UniProt Q16552).
T1 sequence (Q16552 24-155): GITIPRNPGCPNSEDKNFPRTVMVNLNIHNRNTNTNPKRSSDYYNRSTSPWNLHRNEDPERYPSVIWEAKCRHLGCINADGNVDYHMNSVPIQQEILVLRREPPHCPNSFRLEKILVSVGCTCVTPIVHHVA
Briefly: Inhibition of IL-17A induced IL-6 release from dermal fibroblast cell line (HDF cell line assay). The note with it: HDF cells stimulated with IL-17A 50 pM + TNFα 25 pM; IL-6 measured by HTRF. In kind it is cell-based. The source says: Inhibition of IL-17A Induced IL-6 Release from Dermal Fibroblast Cell Line
The purpose of this assay is to test the neutralising ability to IL-17 proteins, in a human primary cell system. Stimulation of normal human dermal fibroblasts (HDF) with IL-17 alone produces only a very weak signal but in combination with certain other cytokines, such as TNFα, a synergistic effect can be seen in the production of inflammatory cytokines, i.e. IL-6.
HDFs were stimulated with IL-17A (50 pM) in combination with TNF-α (25 pM). The resultant IL-6 response was then measured using a homogenous time-resolved FRET kit from Cisbio. The kit utilises two monoclonal antibodies, one labelled with Eu-Cryptate (Donor) and the second with d2 or XL665 (Acceptor). The intensity of the signal is proportional to the concentration of IL-6 present in the sample (Ratio is calculated by 665/620×104).
The ability of a compound to inhibit IL-17 induced IL-6 release from human dermal fibroblasts is measured in this assay.
HDF cells (Sigma #106-05n) were cultured in complete media (DMEM+10% FCS+2 mM L-glutamine) and maintained in a tissue culture flask using standard techniques. Cells were harvested from the tissue culture flask on the morning of the assay using TrypLE (Invitrogen #12605036). The TrypLE was neutralised using complete medium (45 mL) and the cells were centrifuged at 300×g for 3 minutes. The cells were re-suspended in complete media (5 mL) counted and adjusted to a concentration of 3.125×10^4 cells/mL before being added to the 384 well assay plate (Corning #3701) at 40 μL per well. The cells were left for a minimum of three hours, at 37° C./5% CO2, to adhere to the plate.
Compounds were serially diluted in DMSO before receiving an aqueous dilution into a 384 well dilution plate (Greiner #781281), where 5 μL from the titration plate was transferred to 45 μL of complete media and mixed to give a solution containing 10% DMSO.
Mixtures of TNFα and IL-17 cytokine were prepared in complete media to final concentrations of TNFα 25 pM/IL-17A 50 pM, then 30 μL of the solution was added to a 384 well reagent plate (Greiner #781281).
10 μL from the aqueous dilution plate was transferred to the reagent plate containing 30 μL of the diluted cytokines, to give a 2.5% DMSO solution. The compounds were incubated with the cytokine mixtures for 5 h at 37° C. […]
From the Cisbio IL-6 FRET kit (Cisbio #62IL6PEB) europium cryptate and Alexa 665 were diluted in reconstitution buffer and mixed 1:1, as per kit insert. […] The mixture was incubated at room temperature for 3 h with gentle shaking (<400 rpm) before being read on a Synergy Neo 2 plate reader (Excitation: 330 nm; Emission: 615/645 nm).
In general terms: In TR-FRET formats the signal depends on donor and acceptor labels being close together.
What is called IC50 is the point on the concentration scale where inhibition reaches its midpoint. With `[2H]C([2H])([2H])O[C@H]1CCN(C(=O)[C@@H]2CCC(F)(F)CO2)[C@@H](c2cnn3cc([C@@H](NC(=O)c4ccnn4C)C4CCC(F)(F)CC4)nc3n2)C1` (single isomer, unassigned) [Example 1, N—[(S)-(4,4-Difluorocyclohexyl)(3-{(2R,4S or 2S,4R)-1-[(2S)-5,5-difluorotetrahydro-pyran-2-carbonyl]-4-(trideuteriomethoxy)piperidin-2-yl}imidazo[1,2-bl[1,2,4]triazin-6-yl)methyl]-2-methylpyrazole-3-carboxamide], the IC50 is 39.8 nM.

Turning to `[2H]C([2H])([2H])O[C@H]1CCN(C(=O)[C@@H]2CCC(F)(F)CO2)[C@H](c2cnn3cc(C(NC(=O)c4ccnn4C)C4CCC(F)(F)CC4)nc3n2)C1` (single isomer, unassigned) [Example 2, N—[(S)-(4,4-Difluorocyclohexyl)(3-{(2S,4S or 2R,4R)-1-[(2S)-5,5-difluorotetrahydro-pyran-2-carbonyl]-4-(trideuteriomethoxy)piperidin-2-yl}imidazo[1,2-bl[1,2,4]triazin-6-yl)methyl]-2-methylpyrazole-3-carboxamide], the IC50 was 3.98 nM. Then `CO[C@H]1CCN(C(=O)[C@@H]2CCC(F)(F)CO2)[C@@H](c2cnn3cc([C@@H](NC(=O)c4ccnn4C)C4CCC(F)(F)CC4)nc3n2)C1` (single isomer, unassigned) [Example 3, N—[(S)-(4,4-Difluorocyclohexyl)(3-{(2R,4S or 2S,4R)-1-[(2S)-5,5-difluorotetrahydro-pyran-2-carbonyl]-4-methoxypiperidin-2-yl}imidazo[1,2-b][1,2,4]triazin-6-yl)methyl]-2-methylpyrazole-3-carboxamide], with 39.8 nM; and `CO[C@H]1CCN(C(=O)[C@@H]2CCC(F)(F)CO2)[C@H](c2cnn3cc(C(NC(=O)c4ccnn4C)C4CCC(F)(F)CC4)nc3n2)C1` (single isomer, unassigned) [Example 4, N—[(S)-(4,4-Difluorocyclohexyl)(3-{(2S,4S or 2R,4R)-1-[(2S)-5,5-difluorotetrahydro-pyran-2-carbonyl]-4-methoxypiperidin-2-yl}imidazo[1,2-bl[1,2,4]triazin-6-yl)methyl]-2-methylpyrazole-3-carboxamide], with 3.16 nM.
